Here are results for 2 compounds from article PMC11212140, “Molecular Bidents with Two Electrophilic Warheads as a New Pharmacological Modality” (ACS Central Science, 2024).

Where two headings read alike, the source gives them in different places.

Series [1] is described as follows: Glutathione (GSH) reactivity. The series is classed as in vitro ADME. The following applies: glutathione (GSH) in buffer; read-out: half-life of conjugation with glutathione (GSH). On the procedure:
Table S3. Glutathione (GSH) reactivity of ZNL-0056
*NGSH1440: the abbreviation of no glutathione. No glutathione is added into NGSH sample
(replaced by buffer) during the 24 hour-incubation R2 is the correlation coefficient of the linear
regression for the determination of kinetic constant.
(§1) (1 picture or pasted object on this page, not shown here)

For a further series, the system named is T1, LKB1.
T1 construct: purchased ActivX Biosciences (KiNativ)
Briefly: KiNativ profiling in H3255 cells. In kind it is cell-based, human. To be noted: 2.5 µM; Lys2; DIKPGNLLLTTGGTLK

A further series concerns T2, ILK.
T2 construct: purchased ActivX Biosciences (KiNativ)
Kind of series: KiNativ profiling in H3255 cells. In kind it is cell-based, human. The following applies: 2.5 µM.

In the next series the test system is TAO1, TAO3. Briefly: KiNativ profiling in H3255 cells. In kind it is cell-based, human. To be noted: 2.5 µM; Lys2; DIKAGNILLTEPGQVK
On the procedure:
(§2) Cellular target engagement assays […]
(§3) H3255 cells were plated with 6.5x10^6 per condition in fresh media in 15 cm plates and treated the 80% confluency for 2 hours with DMSO or 2.5 μM of ZNL-0056. To harvest cells, plates were washed 3 times with cold PBS, then collected by scraping into 4 mL of cold PBS containing protease and phosphatase inhibitors. Cells were pelleted by centrifugation at 1350 g at 4 ℃ for 5 minutes and immediately frozen in liquid nitrogen. The frozen samples were sent to ActivX Biosciences (La Jolla, CA) for the remainder of the KiNativ profiling experiment4. […]

A further series deals with T3, NuaK2.
T3 construct: purchased ActivX Biosciences (KiNativ)
Briefly: KiNativ profiling in H3255 cells. The series is classed as cell-based, human. The following applies: 2.5 µM; Lys1; LVAIKSIR
On the procedure:
as §2, §3

In another series the test system is MST3, MST4, YSK1. Briefly: KiNativ profiling in H3255 cells. The following applies: 2.5 µM; Activation Loop; LADFGVAGQLTDTQIKR
The series is classed as cell-based, human. How it is done: as §2, §3

Another series concerns T4, DNAPK.
T4 construct: purchased ActivX Biosciences (KiNativ)
Briefly: KiNativ profiling in H3255 cells. The following applies: 2.5 µM, ATP. In kind it is cell-based, human. On the procedure:
as §2, §3

The subject of a further series is T5, PKD2.
T5 construct: purchased ActivX Biosciences (KiNativ)
Briefly: KiNativ profiling in H3255 cells. In kind it is cell-based, human. To be noted: 2.5 µM; Lys1; DVAVKVIDK
How it is done:
as §2, §3

The subject of a further series is T6, PAN3.
T6 construct: purchased ActivX Biosciences (KiNativ)
Kind of series: KiNativ profiling in H3255 cells. The series is classed as cell-based, human. The following applies: 2.5 µM, ATP. On the procedure:
as §2, §3

Another series concerns T7, MARK3.
T7 construct: purchased ActivX Biosciences (KiNativ)
Briefly: KiNativ profiling in H3255 cells. The following applies: 2.5 µM; Lys1; EVAIKIIDKTQLNPTSLQK
In kind it is cell-based, human. How it is done: as §2, §3

The test system of another series is T8, MAP2K2.
T8 construct: purchased ActivX Biosciences (KiNativ)
Briefly: KiNativ profiling in H3255 cells. In kind it is cell-based, human. The following applies: 2.5 µM; Lys2; HQIMHRDVKPSNILVNSR
On the procedure:
as §2, §3

Series [2] relates to MSK1 domain1, MSK2 domain1. Kind of series: KiNativ profiling in H3255 cells. In kind it is cell-based, human. To be noted: 2.5 µM; ATP Loop; VLGTGAYGKVFLVR
On the procedure: as §2, §3

Series [3] concerns EGFR^L858R/C797S Ba/F3 cells. Briefly: Antiproliferation assay (CellTiter-Glo). In kind it is cell-based.
From the text: as §1
protease and phosphatase inhibitors.
Protein expression and purification
Background: ATP-based viability assays read luminescence as a measure of living cells.

Where [4] appears, read: Protein Kinase Domain, ISMADVKFSFQCPGR

As a reminder, the half-life is how long it takes for the measured level to halve. For orientation: Inhibition means the change of the read-out against control, counted positive when it falls. In the case of `C=CC(=O)Nc1cc(Nc2nccc(-c3cn(C)c4ccccc34)n2)c(OC)cc1N(C)CCN(C)C` [Osimertinib, osimertinib, reference compound], the half-life in series [1] amounted to 49 min. Moreover, the Inhibition is given as -3.9% with LKB1; -18.1% with ILK (Lys1, WQGNDIVVKVLK); 14.1% with ILK (setting [4]); 6.6% with TAO1, TAO3; -2.3% in the series on NuaK2; -4.8% with MST3, MST4, YSK1. Moreover, the Inhibition is reported as 29.9% in the series on DNAPK (EHPFLVKGGEDLR); 7.8% in the series with DNAPK (KGGSWIQEINVAEK); -2.1% with PKD2; 10.9% with PAN3 (IQKSSNFGYITSCYK); 3.7% in the series on PAN3 (VMDPTKILITGK); -26.0% in the series with MARK3. Further, the Inhibition is on record as 12.1% in the series on MAP2K2 and -40.8% in [2]. The “activity loss in cells dependent on EGFR^C797S for growth” value in series [3] turned out to be 300 fold.
For `C=CC(=O)Nc1cc(C(=O)Nc2nc3cccc(C)c3n2[C@@H]2CCCCN(C(=O)C=C)C2)cs1` [ZNL-0056], the half-life in [1] worked out at 36 min. In addition, the Inhibition in the series with LKB1 is listed as 0.756%; in the series on ILK (Lys1, WQGNDIVVKVLK) it was -6.7%; in the series with ILK (setting [4]) it was -9.2%; with TAO1, TAO3, -18.6%; in the series with NuaK2, 1.9%; in the series with MST3, MST4, YSK1, 12.7%. Besides, the Inhibition in the series with DNAPK (EHPFLVKGGEDLR) is 26.5%; in the series on DNAPK (KGGSWIQEINVAEK), -18.3%; with PKD2 it was 10.2%; with PAN3 (IQKSSNFGYITSCYK), -8.7%; with PAN3 (VMDPTKILITGK), 10.8%; in the series with MARK3, 17.8%. Moreover, the Inhibition turned out to be 5.5% with MAP2K2 and 15.3% in series [2]. For the same compound, in series [3] (vs EGFR^L858R Ba/F3), the “activity loss in cells dependent on EGFR^C797S for growth” value was 50 fold.
